Legend:
F338A HuAChE = F338A HuAChE (Homo sapiens, UniProt P22303, F369A); test: HuAChE inhibition kinetics; assay type: biochemical; conditions: F338A HuAChE
Y72N/Y124Q/W286A HuAChE = Y72N/Y124Q/W286A HuAChE (Homo sapiens, UniProt P22303, W317A/Y103N/Y155Q); test: HuAChE inhibition kinetics; assay type: biochemical
F297A HuAChE = F297A HuAChE (Homo sapiens, UniProt P22303, F328A); test: HuAChE inhibition kinetics; assay type: biochemical; conditions: F297A HuAChE
Y337F HuAChE = Y337F HuAChE (Homo sapiens, UniProt P22303, Y368F); test: HuAChE inhibition kinetics; assay type: biochemical; conditions: Y337F HuAChE
E202Q HuAChE = E202Q HuAChE (Homo sapiens, UniProt P22303, E233Q); test: HuAChE inhibition kinetics; assay type: biochemical; conditions: E202Q HuAChE
F295A/F338A HuAChE = F295A/F338A HuAChE (Homo sapiens, UniProt P22303, F326A/F369A); test: HuAChE inhibition kinetics; assay type: biochemical; conditions: F295A/F338A HuAChE
W86F HuAChE = W86F HuAChE (Homo sapiens, UniProt P22303, W117F); test: HuAChE inhibition kinetics; assay type: biochemical; conditions: W86F HuAChE
F295A/F338A/V407F HuAChE = F295A/F338A/V407F HuAChE (Homo sapiens, UniProt P22303, F326A/F369A/V438F); test: HuAChE inhibition kinetics; assay type: biochemical; conditions: F295A/F338A/V407F HuAChE
Y341A HuAChE = Y341A HuAChE (Homo sapiens, UniProt P22303, Y372A); test: HuAChE inhibition kinetics; assay type: biochemical; conditions: Y341A HuAChE
Y337A HuAChE = Y337A HuAChE (Homo sapiens, UniProt P22303, Y368A); test: HuAChE inhibition kinetics; assay type: biochemical; conditions: Y337A HuAChE
W86A HuAChE = W86A HuAChE (Homo sapiens, UniProt P22303, W117A); test: HuAChE inhibition kinetics; assay type: biochemical; conditions: W86A HuAChE
Y124A HuAChE = Y124A HuAChE (Homo sapiens, UniProt P22303, Y155A); test: HuAChE inhibition kinetics; assay type: biochemical
F295L/F297V/Y337A HuAChE = F295L/F297V/Y337A HuAChE (Homo sapiens, UniProt P22303, F326L/F328V/Y368A); test: HuAChE inhibition kinetics; assay type: biochemical; conditions: F295L/F297V/Y337A HuAChE
HuBChE-Wild Type = HuBChE-Wild Type (Homo sapiens, UniProt P06276); test: HuBChE inhibition kinetics; assay type: biochemical; conditions: HuBChE-Wild Type
E450A HuAChE = E450A HuAChE (Homo sapiens, UniProt P22303, E481A); test: HuAChE inhibition kinetics; assay type: biochemical; conditions: E450A HuAChE
D74N HuAChE [1] = target: T1, D74N HuAChE (Homo sapiens, UniProt P22303, D105N); test: HuAChE inhibition kinetics; assay type: biochemical; conditions: D74N HuAChE
[2] = target: Y72N/Y124Q/W286A/ F295L/F297V/Y337A HuAChE (Homo sapiens, UniProt P22303, F326L/F328V/W317A/Y103N/Y155Q/Y368A); test: HuAChE inhibition kinetics; assay type: biochemical; conditions: Y72N/Y124Q/W286A/F295L/F297V/Y337A HuAChE
G122A HuAChE = G122A HuAChE (Homo sapiens, UniProt P22303, G153A); test: HuAChE inhibition kinetics; assay type: biochemical
F295A HuAChE = F295A HuAChE (Homo sapiens, UniProt P22303, F326A); test: HuAChE inhibition kinetics; assay type: biochemical; conditions: F295A HuAChE
Y133F HuAChE = Y133F HuAChE (Homo sapiens, UniProt P22303, Y164F); test: HuAChE inhibition kinetics; assay type: biochemical; conditions: Y133F HuAChE
Y133A HuAChE = Y133A HuAChE (Homo sapiens, UniProt P22303, Y164A); test: HuAChE inhibition kinetics; assay type: biochemical; conditions: Y133A HuAChE
E202A HuAChE = E202A HuAChE (Homo sapiens, UniProt P22303, E233A); test: HuAChE inhibition kinetics; assay type: biochemical; conditions: E202A HuAChE
Wild Type HuAChE = Wild Type HuAChE (Homo sapiens, UniProt P22303); test: HuAChE inhibition kinetics; assay type: biochemical; conditions: Wild Type HuAChE
W286A HuAChE = W286A HuAChE (Homo sapiens, UniProt P22303, W317A); test: HuAChE inhibition kinetics; assay type: biochemical; conditions: W286A HuAChE
D74N HuAChE [3] = target: T1, D74N HuAChE; conditions: D74N HuAChE vs wild type; cited from earlier work

Y124A HuAChE, sequence (P22303 32-614 Y155A): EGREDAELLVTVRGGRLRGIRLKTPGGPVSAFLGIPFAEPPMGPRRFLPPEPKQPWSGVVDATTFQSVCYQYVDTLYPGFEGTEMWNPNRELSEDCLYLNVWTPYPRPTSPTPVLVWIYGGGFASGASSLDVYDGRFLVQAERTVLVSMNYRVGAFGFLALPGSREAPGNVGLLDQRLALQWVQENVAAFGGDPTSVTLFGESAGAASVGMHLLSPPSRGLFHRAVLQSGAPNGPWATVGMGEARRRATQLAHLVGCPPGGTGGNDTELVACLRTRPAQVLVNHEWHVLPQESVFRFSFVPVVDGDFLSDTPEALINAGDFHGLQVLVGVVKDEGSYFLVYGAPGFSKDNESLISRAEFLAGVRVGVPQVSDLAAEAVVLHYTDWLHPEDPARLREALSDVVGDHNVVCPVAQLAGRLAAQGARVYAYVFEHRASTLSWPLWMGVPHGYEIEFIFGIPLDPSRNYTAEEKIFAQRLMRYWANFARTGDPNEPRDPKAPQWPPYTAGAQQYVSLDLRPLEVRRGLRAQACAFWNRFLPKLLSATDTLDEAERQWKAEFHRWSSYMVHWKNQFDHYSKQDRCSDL
Y72N/Y124Q/W286A HuAChE, sequence (P22303 32-614 Y103N/Y155Q/W317A): as the sequence (P22303 32-614 Y155A) above, with Y72N, A124Q, W286A counted along it
T1 sequence (P22303 32-614 D105N): as the sequence (P22303 32-614 Y155A) above, with D74N, A124Y counted along it
F295A/F338A HuAChE, sequence (P22303 32-614 F326A/F369A): as the sequence (P22303 32-614 Y155A) above, with A124Y, F295A, F338A counted along it
W286A HuAChE, sequence (P22303 32-614 W317A): as the sequence (P22303 32-614 Y155A) above, with A124Y, W286A counted along it
G122A HuAChE, sequence (P22303 32-614 G153A): as the sequence (P22303 32-614 Y155A) above, with G122A, A124Y counted along it
Y72N/Y124Q/W286A/ F295L/F297V/Y337A HuAChE, sequence (P22303 32-614 Y103N/Y155Q/W317A/F326L/F328V/Y368A): as the sequence (P22303 32-614 Y155A) above, with Y72N, A124Q, W286A, F295L, F297V, Y337A counted along it
E450A HuAChE, sequence (P22303 32-614 E481A): as the sequence (P22303 32-614 Y155A) above, with A124Y, E450A counted along it
E202Q HuAChE, sequence (P22303 32-614 E233Q): as the sequence (P22303 32-614 Y155A) above, with A124Y, E202Q counted along it
E202A HuAChE, sequence (P22303 32-614 E233A): as the sequence (P22303 32-614 Y155A) above, with A124Y, E202A counted along it
F295A HuAChE, sequence (P22303 32-614 F326A): as the sequence (P22303 32-614 Y155A) above, with A124Y, F295A counted along it
F295A/F338A/V407F HuAChE, sequence (P22303 32-614 F326A/F369A/V438F): as the sequence (P22303 32-614 Y155A) above, with A124Y, F295A, F338A, V407F counted along it
F295L/F297V/Y337A HuAChE, sequence (P22303 32-614 F326L/F328V/Y368A): as the sequence (P22303 32-614 Y155A) above, with A124Y, F295L, F297V, Y337A counted along it
W86A HuAChE, sequence (P22303 32-614 W117A): as the sequence (P22303 32-614 Y155A) above, with W86A, A124Y counted along it
F297A HuAChE, sequence (P22303 32-614 F328A): as the sequence (P22303 32-614 Y155A) above, with A124Y, F297A counted along it
W86F HuAChE, sequence (P22303 32-614 W117F): as the sequence (P22303 32-614 Y155A) above, with W86F, A124Y counted along it
Y133F HuAChE, sequence (P22303 32-614 Y164F): as the sequence (P22303 32-614 Y155A) above, with A124Y, Y133F counted along it
Y337A HuAChE, sequence (P22303 32-614 Y368A): as the sequence (P22303 32-614 Y155A) above, with A124Y, Y337A counted along it
Wild Type HuAChE, sequence (P22303 32-614): as the sequence (P22303 32-614 Y155A) above, with A124Y counted along it
Y341A HuAChE, sequence (P22303 32-614 Y372A): as the sequence (P22303 32-614 Y155A) above, with A124Y, Y341A counted along it
Y337F HuAChE, sequence (P22303 32-614 Y368F): as the sequence (P22303 32-614 Y155A) above, with A124Y, Y337F counted along it
HuBChE-Wild Type, sequence (P06276 29-602): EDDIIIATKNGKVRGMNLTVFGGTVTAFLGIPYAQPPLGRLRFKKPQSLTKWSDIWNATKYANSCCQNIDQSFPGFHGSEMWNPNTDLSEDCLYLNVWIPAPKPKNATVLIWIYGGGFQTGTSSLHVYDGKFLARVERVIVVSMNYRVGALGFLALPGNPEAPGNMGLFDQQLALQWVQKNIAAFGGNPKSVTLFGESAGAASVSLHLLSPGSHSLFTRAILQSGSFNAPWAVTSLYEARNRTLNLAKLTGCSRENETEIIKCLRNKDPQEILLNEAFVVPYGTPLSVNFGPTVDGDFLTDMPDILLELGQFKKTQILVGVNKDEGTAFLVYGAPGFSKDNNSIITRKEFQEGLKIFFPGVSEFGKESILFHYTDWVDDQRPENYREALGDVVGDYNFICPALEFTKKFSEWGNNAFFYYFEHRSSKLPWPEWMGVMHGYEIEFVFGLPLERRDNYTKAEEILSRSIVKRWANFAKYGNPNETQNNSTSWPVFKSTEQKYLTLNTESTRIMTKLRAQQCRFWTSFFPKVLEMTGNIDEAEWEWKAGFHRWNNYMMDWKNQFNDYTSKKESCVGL
F338A HuAChE, sequence (P22303 32-614 F369A): as the sequence (P22303 32-614 Y155A) above, with A124Y, F338A counted along it
Y133A HuAChE, sequence (P22303 32-614 Y164A): as the sequence (P22303 32-614 Y155A) above, with A124Y, Y133A counted along it

For `CN(C)C(=O)Oc1ccc[n+](C)c1` [Pyridostigmine, pyridostigmine bromide], the “k2, carbamylation rate constant” value (F338A HuAChE) was 1.20 ± 0.4 min⁻¹, the “k2, carbamylation rate constant” value (Y72N/Y124Q/W286A HuAChE) was 0.80 ± 0.07 min⁻¹ and the “ki, bimolecular rate constant of carbamylation” value (shortened to “ki, bimolecular rate constant”) (Y72N/Y124Q/W286A HuAChE) was 9.3±0.8 × 10^−4 M^−1min^−1. The “k2, carbamylation rate constant” value (F297A HuAChE) was 0.64 ± 0.1 min⁻¹, the “k2, carbamylation rate constant” value (Y337F HuAChE) was 0.68 ± 0.2 min⁻¹ and the “k2, carbamylation rate constant” value (E202Q HuAChE) was 1.00 ± 0.2 min⁻¹. The “k2, carbamylation rate constant” value (F295A/F338A HuAChE) was 0.5 ± 0.4 min⁻¹, the “ki, bimolecular rate constant” value (F295A/F338A HuAChE) was 0.8±0.5 × 10^−4 M^−1min^−1 and the “k2, carbamylation rate constant” value (W86F HuAChE) was 0.65 ± 0.2 min⁻¹. For the same compound, the “k2, carbamylation rate constant” value (F295A/F338A/V407F HuAChE) was 0.5 ± 0.15 min⁻¹, the “k2, carbamylation rate constant” value (Y341A HuAChE) was 1.0 ± 0.1 min⁻¹ and the “k2, carbamylation rate constant” value (Y337A HuAChE) was 0.80 ± 0.1 min⁻¹. The “k2, carbamylation rate constant” value (W86A HuAChE) was 0.68 ± 0.2 min⁻¹, the “k2, carbamylation rate constant” value (Y124A HuAChE) was 0.1 ± 0.01 min⁻¹ and the “ki, bimolecular rate constant” value (Y124A HuAChE) was 13.8±0.4 × 10^−4 M^−1min^−1. For the same compound, the “k2, carbamylation rate constant” value (F295L/F297V/Y337A HuAChE) was 0.55 ± 0.09 min⁻¹, the “k2, carbamylation rate constant” value (HuBChE-Wild Type) was 0.30 ± 0.03 min⁻¹ and the “k2, carbamylation rate constant” value (E450A HuAChE) was 0.15 ± 0.02 min⁻¹. For the same compound, the “k2, carbamylation rate constant” value (D74N HuAChE [1]) was 1.0 ± 0.1 min⁻¹, the “k2, carbamylation rate constant” value [2] was 0.40 ± 0.1 min⁻¹ and the “ki, bimolecular rate constant” value [2] was 0.6±0.1 × 10^−4 M^−1min^−1. The “k2, carbamylation rate constant” value (G122A HuAChE) was 0.12 ± 0.02 min⁻¹, the “ki, bimolecular rate constant” value (G122A HuAChE) was 0.76±0.2 × 10^−4 M^−1min^−1 and the “k2, carbamylation rate constant” value (F295A HuAChE) was 0.17 ± 0.02 min⁻¹. For the same compound, the “k2, carbamylation rate constant” value (Y133F HuAChE) was 0.20 ± 0.04 min⁻¹, the “k2, carbamylation rate constant” value (Y133A HuAChE) was 1.80 ± 0.3 min⁻¹ and the “k2, carbamylation rate constant” value (E202A HuAChE) was 0.20 ± 0.05 min⁻¹. For the same compound, the “k2, carbamylation rate constant” value (Wild Type HuAChE) was 0.77 ± 0.3 min⁻¹, the “k2, carbamylation rate constant” value (W286A HuAChE) was 1.8 ± 0.5 min⁻¹ and the “ki, bimolecular rate constant” value (W286A HuAChE) was 14.0±0.6 × 10^−4 M^−1min^−1.

In the case of `CC[N+](C)(C)c1cccc(O)c1` [edrophonium], the “increase of the dissociation constant” value (D74N HuAChE [3]) is given as 5 fold.
